Reference: ChEMBL document CHEMBL5465560, “Selectivity Literature for EUbOPEN Chemogenomic Library” (2024)
Values belong to the compound of their own block, whether it stands above or below them.

Experiments:
[1] = target: T1, Cytoplasmic tyrosine-protein kinase BMX (Homo sapiens) (UniProt P51813); test: Selectivity interaction (KinomeScan (DiscoverX)) EUB0000655a BMX; conditions: at 10 µM
T1 sequence (whole entry): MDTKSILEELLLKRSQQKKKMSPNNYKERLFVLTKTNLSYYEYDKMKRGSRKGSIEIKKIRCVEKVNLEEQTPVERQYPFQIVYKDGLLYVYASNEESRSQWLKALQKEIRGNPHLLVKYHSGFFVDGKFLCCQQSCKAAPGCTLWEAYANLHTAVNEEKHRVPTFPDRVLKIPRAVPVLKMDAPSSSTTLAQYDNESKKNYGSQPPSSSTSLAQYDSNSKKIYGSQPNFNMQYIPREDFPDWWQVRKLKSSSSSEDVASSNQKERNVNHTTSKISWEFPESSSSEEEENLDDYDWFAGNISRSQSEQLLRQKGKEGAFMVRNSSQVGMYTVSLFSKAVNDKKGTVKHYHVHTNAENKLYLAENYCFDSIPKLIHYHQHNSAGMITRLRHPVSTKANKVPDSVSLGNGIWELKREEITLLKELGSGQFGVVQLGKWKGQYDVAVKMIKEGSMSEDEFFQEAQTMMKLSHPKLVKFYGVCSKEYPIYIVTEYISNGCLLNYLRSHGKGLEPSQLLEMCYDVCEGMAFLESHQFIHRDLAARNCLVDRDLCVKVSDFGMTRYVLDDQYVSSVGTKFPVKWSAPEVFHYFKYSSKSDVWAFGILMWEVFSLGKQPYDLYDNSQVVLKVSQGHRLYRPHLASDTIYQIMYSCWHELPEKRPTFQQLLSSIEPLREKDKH

[2] = target: T2, Mitogen-activated protein kinase 13 (Homo sapiens) (UniProt O15264); test: Selectivity interaction (KinomeScan (DiscoverX)) EUB0001079a MAPK13; conditions: at 1 µM
T2 sequence (whole entry): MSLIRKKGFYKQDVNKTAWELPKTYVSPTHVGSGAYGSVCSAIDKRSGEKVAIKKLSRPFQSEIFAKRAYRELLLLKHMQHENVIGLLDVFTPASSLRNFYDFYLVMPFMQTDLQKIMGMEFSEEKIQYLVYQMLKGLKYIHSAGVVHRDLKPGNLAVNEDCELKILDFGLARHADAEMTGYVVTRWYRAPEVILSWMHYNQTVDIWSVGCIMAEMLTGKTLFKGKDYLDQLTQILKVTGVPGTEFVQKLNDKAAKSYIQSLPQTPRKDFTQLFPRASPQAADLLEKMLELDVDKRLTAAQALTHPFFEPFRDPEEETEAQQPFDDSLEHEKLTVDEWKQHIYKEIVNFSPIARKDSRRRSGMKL

[3] = target: T3, Aurora kinase A (Homo sapiens) (UniProt O14965); test: Selectivity interaction (KinomeScan (DiscoverX)) EUB0000607a STK6; conditions: at 10 µM
T3 sequence (whole entry): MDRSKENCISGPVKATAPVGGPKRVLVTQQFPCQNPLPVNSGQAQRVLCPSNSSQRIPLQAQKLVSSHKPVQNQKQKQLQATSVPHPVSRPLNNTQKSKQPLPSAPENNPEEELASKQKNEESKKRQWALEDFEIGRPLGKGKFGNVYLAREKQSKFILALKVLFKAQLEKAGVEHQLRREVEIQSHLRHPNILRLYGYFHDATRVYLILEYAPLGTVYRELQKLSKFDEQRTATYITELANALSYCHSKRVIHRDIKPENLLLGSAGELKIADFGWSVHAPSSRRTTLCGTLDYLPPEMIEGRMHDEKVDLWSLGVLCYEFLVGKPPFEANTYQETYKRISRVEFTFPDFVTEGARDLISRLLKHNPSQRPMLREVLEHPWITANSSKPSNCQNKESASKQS

[4] = target: T4, Cyclin-dependent kinase 11A (Homo sapiens) (UniProt Q9UQ88); test: Selectivity interaction (KinomeScan (DiscoverX)) EUB0001619a CDK11A; conditions: at 1 µM
T4 sequence (whole entry): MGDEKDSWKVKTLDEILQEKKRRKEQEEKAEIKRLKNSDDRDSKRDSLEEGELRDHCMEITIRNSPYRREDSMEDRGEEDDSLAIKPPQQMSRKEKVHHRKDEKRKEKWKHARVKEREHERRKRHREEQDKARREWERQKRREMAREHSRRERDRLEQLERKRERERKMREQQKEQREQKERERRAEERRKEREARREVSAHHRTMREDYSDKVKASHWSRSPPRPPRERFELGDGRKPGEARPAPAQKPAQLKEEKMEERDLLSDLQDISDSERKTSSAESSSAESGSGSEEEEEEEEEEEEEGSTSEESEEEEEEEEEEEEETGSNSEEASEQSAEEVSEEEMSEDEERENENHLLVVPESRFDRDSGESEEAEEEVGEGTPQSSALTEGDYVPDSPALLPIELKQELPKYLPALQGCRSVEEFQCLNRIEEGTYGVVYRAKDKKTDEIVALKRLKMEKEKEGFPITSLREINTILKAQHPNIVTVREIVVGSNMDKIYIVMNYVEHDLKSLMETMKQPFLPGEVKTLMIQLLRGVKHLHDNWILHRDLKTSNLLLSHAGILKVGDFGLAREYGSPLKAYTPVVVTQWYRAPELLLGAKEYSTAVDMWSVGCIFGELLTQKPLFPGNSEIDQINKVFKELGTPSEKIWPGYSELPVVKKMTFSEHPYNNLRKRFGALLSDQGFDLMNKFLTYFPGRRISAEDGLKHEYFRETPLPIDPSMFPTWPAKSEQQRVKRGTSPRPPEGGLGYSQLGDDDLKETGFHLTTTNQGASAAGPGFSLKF

[5] = target: Casein kinase II subunit alpha' (Homo sapiens) (UniProt P19784); test: Selectivity interaction (ActivX KiNativ screen (kinase selectivity in THP-1 cell lysates)) EUB0000639a CSNK2A2; assay type: subcellular; conditions: lysate
Casein kinase II subunit alpha' (Homo sapiens), sequence (P19784 whole entry, looked up): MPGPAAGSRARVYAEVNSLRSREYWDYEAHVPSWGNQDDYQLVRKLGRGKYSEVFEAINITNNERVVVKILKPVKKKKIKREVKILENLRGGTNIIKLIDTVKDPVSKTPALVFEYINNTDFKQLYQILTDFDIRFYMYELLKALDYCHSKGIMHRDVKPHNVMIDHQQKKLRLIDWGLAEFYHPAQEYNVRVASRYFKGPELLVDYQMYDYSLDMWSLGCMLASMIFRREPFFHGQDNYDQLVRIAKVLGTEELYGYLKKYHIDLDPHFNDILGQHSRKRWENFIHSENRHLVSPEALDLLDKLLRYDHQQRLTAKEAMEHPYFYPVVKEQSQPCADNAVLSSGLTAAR

[6] = target: Tyrosine-protein kinase ABL1 (Homo sapiens, UniProt P00519); test: Selectivity interaction (ActivX KiNativ screen (kinase selectivity in THP-1 cell lysates)) EUB0000639a ABL1; assay type: subcellular; conditions: lysate, at 1 µM
Tyrosine-protein kinase ABL1, sequence (P00519 whole entry): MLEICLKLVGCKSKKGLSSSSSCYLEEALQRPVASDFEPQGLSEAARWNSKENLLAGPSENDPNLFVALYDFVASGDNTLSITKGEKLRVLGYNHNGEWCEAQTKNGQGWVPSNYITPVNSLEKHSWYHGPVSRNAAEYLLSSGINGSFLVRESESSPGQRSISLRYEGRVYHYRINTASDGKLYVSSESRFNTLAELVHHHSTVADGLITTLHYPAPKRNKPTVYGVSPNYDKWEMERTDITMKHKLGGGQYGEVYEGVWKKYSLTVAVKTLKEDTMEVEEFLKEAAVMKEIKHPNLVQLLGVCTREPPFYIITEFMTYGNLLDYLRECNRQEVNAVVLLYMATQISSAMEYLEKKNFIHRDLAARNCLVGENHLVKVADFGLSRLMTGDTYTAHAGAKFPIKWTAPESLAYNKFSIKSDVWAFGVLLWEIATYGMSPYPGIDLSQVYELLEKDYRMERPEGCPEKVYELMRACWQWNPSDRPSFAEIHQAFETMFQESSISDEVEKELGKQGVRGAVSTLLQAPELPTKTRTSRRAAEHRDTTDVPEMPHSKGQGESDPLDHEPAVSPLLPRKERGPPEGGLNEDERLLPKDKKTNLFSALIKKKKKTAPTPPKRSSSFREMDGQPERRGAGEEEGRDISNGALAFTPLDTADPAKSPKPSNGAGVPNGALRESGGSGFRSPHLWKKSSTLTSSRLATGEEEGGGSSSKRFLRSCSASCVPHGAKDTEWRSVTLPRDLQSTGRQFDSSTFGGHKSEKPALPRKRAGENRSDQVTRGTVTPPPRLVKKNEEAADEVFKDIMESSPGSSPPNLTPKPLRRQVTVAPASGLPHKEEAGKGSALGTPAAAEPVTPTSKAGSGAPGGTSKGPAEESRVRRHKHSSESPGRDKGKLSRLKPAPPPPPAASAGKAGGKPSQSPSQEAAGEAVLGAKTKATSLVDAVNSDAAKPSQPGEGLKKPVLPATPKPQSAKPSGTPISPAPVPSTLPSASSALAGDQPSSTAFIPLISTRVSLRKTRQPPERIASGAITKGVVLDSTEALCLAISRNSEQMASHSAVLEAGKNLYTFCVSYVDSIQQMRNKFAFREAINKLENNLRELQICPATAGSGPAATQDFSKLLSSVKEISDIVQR

[7] = target: Tyrosine-protein kinase Lck (Homo sapiens, UniProt P06239); test: Selectivity interaction (Kinase panel (33PanQinase(R) Activity Assay)) EUB0000877a LCK
Tyrosine-protein kinase Lck, sequence (P06239 whole entry): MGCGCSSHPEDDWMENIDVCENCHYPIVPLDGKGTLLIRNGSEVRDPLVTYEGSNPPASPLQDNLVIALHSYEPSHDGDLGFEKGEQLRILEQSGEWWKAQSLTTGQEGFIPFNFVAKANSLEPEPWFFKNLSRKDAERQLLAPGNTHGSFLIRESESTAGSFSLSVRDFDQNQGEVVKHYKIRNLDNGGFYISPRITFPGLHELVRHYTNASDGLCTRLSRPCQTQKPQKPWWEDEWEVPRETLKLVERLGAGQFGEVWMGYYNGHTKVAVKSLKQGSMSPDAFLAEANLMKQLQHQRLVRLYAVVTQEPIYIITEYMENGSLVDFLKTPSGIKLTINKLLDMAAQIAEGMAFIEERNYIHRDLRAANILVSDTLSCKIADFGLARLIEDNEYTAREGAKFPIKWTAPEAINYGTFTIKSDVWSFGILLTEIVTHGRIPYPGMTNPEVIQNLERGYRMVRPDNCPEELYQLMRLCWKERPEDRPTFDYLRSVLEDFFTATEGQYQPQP

[8] = target: Serine/threonine-protein kinase/endoribonuclease IRE1 (Homo sapiens) (UniProt O75460); test: Selectivity interaction (KinomeScan (DiscoverX)) EUB0000666a ERN1; conditions: at 10 µM
Serine/threonine-protein kinase/endoribonuclease IRE1 (Homo sapiens), sequence (O75460 19-977 limits assumed): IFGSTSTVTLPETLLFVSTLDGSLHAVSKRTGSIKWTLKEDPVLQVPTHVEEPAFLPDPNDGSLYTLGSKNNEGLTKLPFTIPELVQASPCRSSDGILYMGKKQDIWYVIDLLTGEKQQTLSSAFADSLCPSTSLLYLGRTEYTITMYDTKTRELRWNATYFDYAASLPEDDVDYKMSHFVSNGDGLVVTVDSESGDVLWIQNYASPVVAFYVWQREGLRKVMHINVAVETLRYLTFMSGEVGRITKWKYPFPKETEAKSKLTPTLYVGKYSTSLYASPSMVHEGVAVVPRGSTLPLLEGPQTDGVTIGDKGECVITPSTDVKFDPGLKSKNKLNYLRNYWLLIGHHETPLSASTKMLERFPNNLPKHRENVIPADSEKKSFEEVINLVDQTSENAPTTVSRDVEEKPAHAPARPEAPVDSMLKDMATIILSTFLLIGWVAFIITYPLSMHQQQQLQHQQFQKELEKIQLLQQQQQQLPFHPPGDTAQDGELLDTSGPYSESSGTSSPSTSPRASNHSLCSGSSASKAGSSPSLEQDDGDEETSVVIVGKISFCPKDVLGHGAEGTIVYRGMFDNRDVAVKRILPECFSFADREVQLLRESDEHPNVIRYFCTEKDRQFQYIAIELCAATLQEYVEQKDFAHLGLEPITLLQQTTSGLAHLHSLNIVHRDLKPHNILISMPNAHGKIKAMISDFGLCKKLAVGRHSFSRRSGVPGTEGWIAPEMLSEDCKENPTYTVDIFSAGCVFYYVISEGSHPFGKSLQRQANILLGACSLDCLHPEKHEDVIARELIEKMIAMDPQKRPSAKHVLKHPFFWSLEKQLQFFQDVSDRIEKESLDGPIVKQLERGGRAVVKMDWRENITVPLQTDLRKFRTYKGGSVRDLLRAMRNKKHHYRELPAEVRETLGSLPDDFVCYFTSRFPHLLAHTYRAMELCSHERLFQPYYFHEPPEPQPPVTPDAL

Structure (SMILES): CN(C)CCOc1ccc(-c2nc(-c3ccncc3)c(-c3ccc4c(c3)CC/C4=N\O)[nH]2)cc1
% of control [1]: 81%

Structure (SMILES): Nc1cnc(N2CCc3cc(S(=O)(=O)Nc4c(F)cc(Cl)cc4F)cc(N4CCCC4=O)c32)nc1 [TP-020n]
% of control [2]: 100%

Structure (SMILES): CNC(=O)Nc1ccc(-c2nc(N3CC4CCC(C3)O4)c3cnn(C4CCC5(CC4)OCCO5)c3n2)cc1
% of control [3]: 100%

Structure (SMILES): N#Cc1cccc(-c2c[nH]c3ncnc(N4CCOCC4)c23)c1
% of control [4]: 100%

% of inhibition ([5]; at 0.01 µM): -4.5%
% of inhibition ([5]; at 0.04 µM): -21.2%
% of inhibition ([5]; at 0.2 µM): -18%
% of inhibition ([5]; at 1 µM): -3.6%
% of inhibition ([5]; at 5 µM): -2.6%
% of inhibition [6]: -13.2%
Structure (SMILES): CC[C@@H]1[C@H](F)C(=O)N[C@@H]1COc1nccc2cc(C(N)=O)c(OC)cc12 [ZIMLOVISERTIB]

IC50 [7]: > 10 µM
Structure (SMILES): CCC(=O)N1CC[C@H](Nc2ncnc3c2CN(c2cnc(OC)c(C(F)(F)F)c2)CC3)C1 [LENIOLISIB]

Structure (SMILES): O=C(NOC[C@H](O)CO)c1ccc(F)c(F)c1Nc1ccc(I)cc1F
% of control [8]: 97%
